Data taken from a melting point compilation (Tetko et al.; mined from patent text by program, amines drawn as free bases though some values may be those of a salt).

melting point	SMILES
72 to 75 °C	C=CCON=C(CCC)C1=C(O)CC(c2ccc(C(=O)SCC)cc2)CC1=O (stereo not given)
64 to 65 °C	COc1ccc(C(=O)CSCc2ccncc2)cc1
115 to 117 °C	CCOC(=O)N1CCC(Nc2cc(OC)ccc2[N+](=O)[O-])CC1
136 to 145 °C	O=c1ncccn1Cc1ccc2ccccc2c1
137 to 141 °C	CC(NC(=O)c1cc(Cl)ccc1[N+](=O)[O-])C1CC1 (stereo not given)
126 to 130 °C	O=C1Nc2cc(F)ccc2OC1CCO (stereo not given)
263 to 264 °C	Cc1cc(C#N)cc(C(=O)c2c(C(C)C)c(=O)[nH]c(=O)n2Cc2cc(F)cc(NC(=O)C(F)(F)F)c2)c1
89 to 90.5 °C	COC1=C(OC)C(=O)C(CCCCCCCCCCCCCCCCCCCCCCO)=C(C)C1=O
101 to 103 °C	COP(=O)(OC)C1=C(C)NC(C)=C(C(=O)OCCN(C)Cc2ccccc2)C1c1cccc([N+](=O)[O-])c1 (stereo not given)
300 to 305 °C	Cc1cc(C)c2cccc(C(=O)Nc3nnn[nH]3)c2n1
86 to 87 °C	CCOC(=O)c1ccc(/C=C(\C)c2ccc3c(c2)C(C)(C)CCO3)cc1
> 300 °C	NCc1ccn(-c2cc3[nH]c(=O)c(=O)[nH]c3cc2[N+](=O)[O-])c1
226 to 228 °C	Cc1nc2c(N)nc3ccccc3c2n1CCCNC(=O)N1CCOCC1
191 to 193 °C	Nc1ccc2c(c1)CCN(Cc1ncn[nH]1)C2
158 to 162 °C	Cc1c(CCN(C)C(=O)OC(C)(C)C)c2cc(S(=O)(=O)c3cc(F)cc(F)c3)ccc2n1C
132 °C	CC(C)Cn1c(=O)n(C)c(=O)c2c(Br)c(C(O)c3cccnc3)sc21 (stereo not given)
102 to 112 °C	Cc1cccc(C(=O)NO)c1N(C)S(=O)(=O)c1ccc(OCCCNC(=O)c2ccc3c(c2)OCO3)cc1
119 to 121 °C	COc1ccccc1N1CCN(C[C@@H](CC2CCCCC2)NC(=O)C2(C)CCCCC2)CC1
115 to 120 °C	O=CCCNC(=O)CN1CCN(CC(=O)O)CCN(CC(=O)O)CCN(CC(=O)O)CC1
86 to 88 °C	CC(C)c1nn(-c2ccccc2)c(-c2ccc(F)cc2)c1CCC=O
136 to 138 °C	Fc1cccc(F)c1C1=NC(c2ccccc2Br)CCS1 (stereo not given)
70 to 71 °C	CCN(CC)[C@@H]1C(=O)N(C)[C@H]1c1ccccc1 (relative stereo)
126 °C	Cc1cccc(C(C(O)C(C)(C)C)n2ccnc2)c1 (stereo not given)
138 to 140 °C	COC(=O)C[C@@H]1C[C@@H](COc2ccc(-c3ccc(C#N)cc3)cc2)NC1=O
163 °C	CCCCCCCCCCCC(=O)N[C@@H](C)C(=O)N[C@H](CCC(=O)O)C(N)=O

melting point	SMILES
159 to 160 °C	CCCc1nc2c(N)nc3ccccc3c2o1
132 °C	Brc1nc(-c2ccccc2)nc2ccccc12
84 to 85 °C	COC(=O)CCCCCCNC(=O)C(CSC(C)=O)Cc1ccccc1 (stereo not given)
181 to 184 °C	COC(=O)CN(CC(=O)OC)[C@H]1CC[C@H](Nc2ncc3ncnc(Nc4ccc(F)c(Cl)c4)c3n2)CC1
58 to 59 °C	FC(F)Oc1cccc2cnsc12
140 to 155 °C	Nc1cccc(-c2ccc(OCCN3CC4C(N)C4C3)c3ccccc23)n1 (stereo not given)
89 to 90 °C	N#CCCCN1CCOC(c2ccccc2)(c2ccccc2)CC1
152 to 153 °C	COP(=O)(Cc1c2ccccc2cc2ccccc12)OC
133 to 135 °C	CCOC(=O)NCC(=O)c1ccc(OCC(=O)NCCN2CCOCC2)cc1
76 to 77 °C	CS(=O)(=O)c1ccc(-c2cc(=O)n(CC3CCCC3)nc2-c2ccc(F)cc2)cc1
83 to 85 °C	Cc1ccc(C(O)(c2ccc(C)cc2)[C@H](C)OS(C)(=O)=O)cc1
219 to 220 °C	Cc1cc2c(cc1C(F)(F)F)N(C(=O)Nc1ccc(OCc3ccccn3)nc1)CC2
165 to 167 °C	O=C(Nc1cccc2c3c(oc12)CCC=C3)c1c(Cl)cccc1Cl
89 to 90 °C	CC1(C)CCCC(C)(C)N1c1nc(Cl)cc(Cl)n1
113 to 114 °C	c1ccc(-c2nc(COc3ccc(CCCCn4ccnc4)cc3)co2)cc1
221 °C	CC(C)(CO)NS(=O)(=O)c1cccc(NC(=O)c2cnn3c(C(F)(F)F)cc(-c4ccc(C(F)(F)F)c(F)c4)nc23)c1
61 to 62 °C	CCOC(=O)CCc1cccc2c1Sc1cc(C#N)ccc1CC2
85 to 91 °C	O=C1OC(=O)c2ncc([N+](=O)[O-])cc21
> 250 °C	Nc1ncc(C2CCN(c3ccc([N+](=O)[O-])cc3)CC2)c(N)n1
152 to 154 °C	NC(=O)c1cnn2c1NCCC2c1cccc(C(F)(F)F)c1 (stereo not given)
152 to 157 °C	COc1cc2c(cc1O)CC(C)(C)N=C2
192 to 193 °C	Cc1cc(C#N)sc1-c1ccc2c(c1)C(C)(C)C(=O)N2
157 °C	CC(C)(C(=O)O)c1ccc(Cl)c([N+](=O)[O-])c1
193 to 195 °C	CC(c1ncccn1)C(O)(Cn1cncn1)c1ccc(F)cc1F (stereo not given)
195 to 198 °C	Cc1cc2cc(CN3CCCC3)cnc2cc1NC(=O)c1ccc(-c2ccc(Cl)cc2)cc1F

melting point	SMILES
92 °C	COC(=O)CCCc1cc2nc(Cl)ccc2n1S(=O)(=O)c1cccc(C(C)C)c1
148 to 152 °C	CCCn1c(=O)oc2cc(F)c([N+](=O)[O-])cc21
186 to 187 °C	COc1ccc(/C=C(\C#N)c2ccc([N+](=O)[O-])cc2)cc1OC1CCCC1
160 °C	Cc1cc(N(C)S(=O)(=O)c2cccs2)c2[nH]c(C3=NCC(CNC(=O)OCc4ccccc4)S3)cc2c1 (stereo not given)
145 to 146 °C	N#CCOc1ccc(Cl)cc1-n1nncc1-c1cccc(C(F)(F)F)c1
165 to 166 °C	CCCS(=O)c1sc(C(N)=O)c2c1-c1c(cnn1CC(F)(F)F)CC2 (stereo not given)
138 to 139 °C	CCOC(=O)Cn1c(=O)c2ccccc2n(Cc2ccc(Cl)cc2)c1=O
110 °C	O=C(/C=C/c1ccccc1)Nc1cccc(F)c1
91 to 95 °C	C[C@@H](CCC(=O)N[C@@H](Cc1ccccc1)C(=O)CSCc1ccco1)CNC(=O)COc1ccccc1
215 to 227 °C	O=C(CCCCl)NC1c2ccccc2CS(=O)(=O)c2ccccc21 (stereo not given)
116 to 118 °C	CCCc1c(OCCCS(=O)(=O)c2ccc(C(=O)CCC(=O)O)c(F)c2)ccc(C(C)=O)c1O
168 °C	CCOC(=O)C(=O)N1CCC(Cc2ccc(C(C)(C)C)cc2)CC1
177 to 178 °C	N#Cc1cc(C(=O)O)ccc1F
146 to 147 °C	CCOC(=O)C(=O)Nc1ccc(Cc2ccc(NC(=O)C(=O)OCC)cc2)cc1
77 to 79 °C	CCCCCCc1ccc(C(=O)CCCCC(=O)O)cc1
113 to 115 °C	COc1ccccc1N1CCN(CCCCc2c[nH]c3ccccc23)CC1
266 to 268 °C	CCCn1c(=O)c2c(nc(C=Cc3cc(OC)c(OC)cc3S(N)(=O)=O)n2C)n(CCC)c1=O
68 to 70 °C	CC=NN(C(=O)c1ccccc1)c1ccc(OC)cc1
214 to 216 °C	CC(C)(Oc1ccc(N)cc1)C(=O)O
121 to 123 °C	Nc1ccc(C(=O)c2cccc(N)c2)cc1
236 to 238 °C	O=C(O)c1nc2cc(N3CCN(c4ccc(F)cc4)CC3)c([N+](=O)[O-])cc2[nH]c1=O
70 to 74 °C	CC1=NOCC1(C)S(=O)(=O)n1nc(Cl)nc1-c1ccccc1 (stereo not given)
178 °C	COc1ccc(S(N)(=O)=O)cc1C(N)=O
195 °C	OC1CSC(Oc2ccc(-c3cc4ccccc4o3)nc2)C(O)C1O (stereo not given)
206 to 208 °C	N=C(Nc1cc(NC(=O)/C=C/c2ccccc2Cl)cc(C(F)(F)F)c1)c1cccs1

melting point	SMILES
272 to 275 °C	CCOC(=O)c1ncc2[nH]c3ccc([N+](=O)[O-])cc3c2c1C
135 to 136 °C	CN1CCN(CCCNc2ncc3c(n2)-c2ccccc2C(c2ccc(Cl)c(Cl)c2)C3)CC1 (stereo not given)
197 °C	N#CC(c1ccc(Cl)cc1)c1ccc(-n2ncc(=O)[nH]c2=O)cc1Cl (stereo not given)
163 to 165 °C	CCOC(=O)C1=C(C)NC(c2c(F)cccc2F)=NC1c1ccc(F)cc1Cl (stereo not given)
192 to 193 °C	Fc1cc(CC2(Cc3ccncc3)c3cccnc3-c3sccc32)ccn1 (stereo not given)
85 °C	C=CCOc1ccc(C(=O)Oc2ccc3ccc(OC(=O)C(=C)C)cc3c2)cc1
55 to 57 °C	CS(=O)(=O)c1ccc(-c2cnn(CC(F)(F)F)c(=O)c2-c2ccc(Cl)cc2)cc1
66 °C	N#CCOc1cccc2c1SCCC2
162 to 165 °C	O=C(O)c1ccc(Oc2nn(Cc3ccccc3)c3ccccc23)o1
193 to 195 °C	Cc1c(CC(=O)O)c2cc(O)ccc2n1C(=O)c1ccc(OC(F)(F)F)cc1
242 to 243 °C	Cn1c(=O)c(C(=O)O)c(-c2ccccc2)c2cc(Cl)ccc21
270 to 271 °C	Cn1nnnc1-c1ccc2c(c1)S(=O)(=O)c1ccccc1C2=O
194 to 195 °C	Cc1c(C#N)sc2nc(-c3ccncc3)nc(N(C)CCO)c12
76 to 77 °C	CON=C(C(=O)OC(C)C)c1ccccc1CBr
111 to 112 °C	Cn1nc(C(F)(F)F)c(CSC2=NOC(C)(CCl)C2)c1O (stereo not given)
150 to 155 °C	COc1ccc(-c2ccc3c(F)c(OC)ccc3c2)cc1
272 to 275 °C	CCCc1nn(C)c2c(=O)[nH]c(Cc3ccc(NC(C)=O)cc3)nc12
147 to 185 °C	OCc1ccc2cccc3c2c1-c1ccccc1-3
230 °C	CC(C)Cc1nc2sc3c(NCc4cccnc4)ncnc3c2c2c1CCC(C)(C)C2
138 to 141 °C	CC(C)Cn1c(=O)n(C)c(=O)c2c(SCCO)n(Cc3cccc4ccccc34)cc21
286 to 289 °C	CC(=O)/C=C/c1cc(F)c2ncc(C(=O)NCc3ccc(Cl)cc3)c(O)c2c1
140 to 142 °C	COc1cc(OC)c2c(C)c(CCN3CCN(c4ccccc4OC)CC3)c(=O)oc2c1
72 to 74 °C	CCOC(=O)[C@H](C)Oc1ccc2cc(Br)ccc2c1
204 to 205 °C	CCNc1nc(C)c(-c2ccnc(Nc3cccc(S(=O)(=O)NCc4ccccc4)c3)n2)s1

SMILES	melting point
COc1ccc2c(c1)C13CCN(CC4CC4)C(C2)C1(Cc1ccccc1)CCC1(C3)OCCO1 (stereo not given)	165 to 167 °C
